Assay results taken from PubChem BioAssay AID330 (DTP/NCI, 2004).
Where “and” joins values, the source holds several entries; their conditions need not be identical. Equal values may be shown once. Toxic doses and inconclusive results are not listed.

Tested on: P388 leukemia ip, CD2F1 mice, survival T/C
Assay: NCI In Vivo Anticancer Drug Screen. Data for tumor model P388 Leukemia (intraperitoneal) in CD2F1 (CDF1) mice
Conditions: endpoint: median survival time, higher = longer survival
How it was run: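 Mice carrying the transplanted tumor received test compound or vehicle. Survival was recorded in each group, and the value is the treated-group measurement divided by that of the vehicle-treated control group.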

[1] = dose: 12.5 mg/kg/injection, schedule: Q01DX009 (ip), vehicle: saline with Tween-80
[2] = dose: 50.0 mg/kg/injection, schedule: Q01DX009 (ip), vehicle: saline with Tween-80
[3] = dose: 100.0 mg/kg/injection, schedule: Q04DX003 (ip), vehicle: saline with Tween-80
[4] = dose: 200.0 mg/kg/injection, schedule: Q04DX003 (ip), vehicle: saline with Tween-80
[5] = dose: 400.0 mg/kg/injection, schedule: Q04DX003 (ip), vehicle: saline with Tween-80
[6] = dose: 60.0 mg/kg/injection, schedule: Q01DX005 (ip), vehicle: Klucel (hydroxypropylcellulose) (HPC)
[7] = dose: 120.0 mg/kg/injection, schedule: Q01DX005 (ip), vehicle: Klucel (hydroxypropylcellulose) (HPC)
[8] = dose: 50.0 mg/kg/injection, schedule: Q01DX009 (ip), vehicle: Klucel (hydroxypropylcellulose) (HPC)
[9] = dose: 100.0 mg/kg/injection, schedule: Q01DX009 (ip), vehicle: Klucel (hydroxypropylcellulose) (HPC)
[10] = dose: 200.0 mg/kg/injection, schedule: Q01DX009 (ip), vehicle: Klucel (hydroxypropylcellulose) (HPC)
[11] = dose: 60.0 mg/kg/injection, schedule: Q01DX005 (ip), vehicle: saline
[12] = dose: 120.0 mg/kg/injection, schedule: Q01DX005 (ip), vehicle: saline
[13] = dose: 240.0 mg/kg/injection, schedule: Q01DX005 (ip), vehicle: saline
[14] = dose: 100.0 mg/kg/injection, schedule: Q04DX003 (ip), vehicle: saline
[15] = dose: 60.0 mg/kg/injection, schedule: Q01DX005 (ip), vehicle: saline with Tween-80
[16] = dose: 120.0 mg/kg/injection, schedule: Q01DX005 (ip), vehicle: saline with Tween-80
[17] = dose: 240.0 mg/kg/injection, schedule: Q01DX005 (ip), vehicle: saline with Tween-80

`Cc1ccc2ncccc2c1N` (tested in a mixture with another compound) was tested, and the T/C (dose: 6.25 mg/kg/injection, schedule: Q01DX009 (ip), vehicle: gum acacia) was 106 % of control, the T/C (dose: 12.5 mg/kg/injection, schedule: Q01DX009 (ip), vehicle: gum acacia) was 113 % of control and the T/C (dose: 25.0 mg/kg/injection, schedule: Q01DX009 (ip), vehicle: gum acacia) was 107 % of control. For the same compound, the T/C (dose: 50.0 mg/kg/injection, schedule: Q01DX009 (ip), vehicle: gum acacia) was 108 % of control.
In the case of `COC(=O)Nc1nc2ccc(C(=O)c3ccc(F)cc3)cc2[nH]1`, the T/C [1] is reported as 120 % of control, the T/C [2] is reported as 180 % of control and the T/C (dose: 100.0 mg/kg/injection, schedule: Q01DX009 (ip), vehicle: saline with Tween-80) is reported as 217 % of control and 236 % of control.
For `CP1(=O)CCC2=C1CCCC2` (configuration not stated), the T/C [3] was 105 % of control, the T/C [4] was 107 % of control and the T/C [5] was 104 % of control.
In the case of `CN1CCCC1CN1CCCC1` (configuration not stated), the T/C (dose: 50.0 mg/kg/injection, schedule: Q01DX005 (ip), vehicle: saline) is reported as 107 % of control, the T/C (dose: 100.0 mg/kg/injection, schedule: Q01DX005 (ip), vehicle: saline) is reported as 102 % of control and the T/C (dose: 200.0 mg/kg/injection, schedule: Q01DX005 (ip), vehicle: saline) is reported as 98 % of control.
`O=C(Oc1ccc(=O)[nH]n1)c1ccccc1` was tested, and the T/C [6] was 102 % of control, the T/C [7] was 115 % of control and the T/C (dose: 240.0 mg/kg/injection, schedule: Q01DX005 (ip), vehicle: Klucel (hydroxypropylcellulose) (HPC)) was 111 % of control.
For `O=C(Nc1c(Cl)cccc1Cl)OC1CCCCCCCCCCC1`, the T/C [8] was 100 % of control, the T/C [9] was 92 % of control and the T/C [10] was 86 % of control.
In the case of `O=c1c2ccccc2sc2c(N(CCO)CCO)cc3c(c12)CCCC3`, the T/C (dose: 25.0 mg/kg/injection, schedule: Q01DX005 (ip), vehicle: distilled water + Tween-80) is reported as 103 % of control, the T/C (dose: 50.0 mg/kg/injection, schedule: Q01DX005 (ip), vehicle: distilled water + Tween-80) is reported as 101 % of control and the T/C (dose: 100.0 mg/kg/injection, schedule: Q01DX005 (ip), vehicle: distilled water + Tween-80) is reported as 100 % of control. The T/C (dose: 200.0 mg/kg/injection, schedule: Q01DX005 (ip), vehicle: distilled water + Tween-80) was 95 % of control.
`CCOC(=O)/C=C(/Nc1cccc(OC)c1)c1ccccc1` was tested, and the T/C (dose: 25.0 mg/kg/injection, schedule: Q01DX009 (ip), vehicle: other) was 97 % of control, the T/C (dose: 50.0 mg/kg/injection, schedule: Q01DX009 (ip), vehicle: other) was 103 % of control and the T/C (dose: 100.0 mg/kg/injection, schedule: Q01DX009 (ip), vehicle: other) was 98 % of control. The T/C (dose: 200.0 mg/kg/injection, schedule: Q01DX009 (ip), vehicle: other) was 91 % of control and the T/C (dose: 400.0 mg/kg/injection, schedule: Q01DX009 (ip), vehicle: other) was 105 % of control.
For `O=C(c1ccccc1)C(CN1CCOCC1)CN1CCOCC1`, the T/C (dose: 50.0 mg/kg/injection, schedule: Q01DX009 (ip), vehicle: saline) was 119 % of control and the T/C (dose: 100.0 mg/kg/injection, schedule: Q01DX009 (ip), vehicle: saline) was 116 % of control.
In the case of `O=c1c(N=Nc2nc3ccc([N+](=O)[O-])cc3s2)c(O)n(-c2ccccc2)c(=S)n1-c1ccccc1`, the T/C [11] is reported as 96 % of control, the T/C [12] is reported as 96 % of control and the T/C [13] is reported as 92 % of control.
`C=C1C(C(=O)OCC)=NNc2c(C(N)=O)ncn21` was tested, and the T/C (dose: 100.0 mg/kg/injection, schedule: Q04DX002 (ip), vehicle: Klucel (hydroxypropylcellulose) (HPC)) was 96 % of control, the T/C (dose: 200.0 mg/kg/injection, schedule: Q04DX002 (ip), vehicle: Klucel (hydroxypropylcellulose) (HPC)) was 101 % of control and the T/C (dose: 400.0 mg/kg/injection, schedule: Q04DX002 (ip), vehicle: Klucel (hydroxypropylcellulose) (HPC)) was 104 % of control.
With `O=S(=O)(O)CC(O)CNC(CO)(CO)CO` (configuration not stated) the T/C [11] was 104 % of control, the T/C [12] was 98 % of control and the T/C [13] was 104 % of control.
In the case of `CSC(SC)=C(C#N)C#N`, the T/C (dose: 25.0 mg/kg/injection, schedule: Q04DX003 (ip), vehicle: saline) is reported as 104 % of control, the T/C (dose: 50.0 mg/kg/injection, schedule: Q04DX003 (ip), vehicle: saline) is reported as 105 % of control and the T/C [14] is reported as 108 % of control.
In the case of `Cc1cc(C)[n+]2n1C(=O)C(c1ccc(C3C(=O)n4c(C)cc(C)[n+]4C3=O)cc1)C2=O` (configuration not stated), the T/C (dose: 50.0 mg/kg/injection, schedule: Q01DX005 (ip), vehicle: Klucel + Tween-80) is reported as 99 % of control, the T/C (dose: 100.0 mg/kg/injection, schedule: Q01DX005 (ip), vehicle: Klucel + Tween-80) is reported as 97 % of control and the T/C (dose: 200.0 mg/kg/injection, schedule: Q01DX005 (ip), vehicle: Klucel + Tween-80) is reported as 100 % of control.
With `COc1ccc(C(=O)CCc2cccc(NC(=O)CCCl)c2)cc1` the T/C [15] was 105 % of control, the T/C [16] was 94 % of control and the T/C [17] was 92 % of control.
In the case of `CC(C(=O)O)N1CN(/N=C/c2ccc(Cl)cc2Cl)C(N)=NC1(O)CCl` (configuration not stated), the T/C [11] is reported as 101 % of control, the T/C [12] is reported as 101 % of control and the T/C [13] is reported as 115 % of control.
With `NN1CCCC1` the T/C [14] was 90 % of control and the T/C (dose: 200.0 mg/kg/injection, schedule: Q04DX003 (ip), vehicle: saline) was 95 % of control.
In the case of `COc1ccccc1C(O)c1cnc(C)n1Cc1ccccc1` (configuration not stated), the T/C [15] is reported as 98 % of control, the T/C [16] is reported as 107 % of control and the T/C [17] is reported as 97 % of control.
In the case of `Ic1ccccc1C[N+]12CN3CN(CN(C3)C1)C2`, the T/C [3] is reported as 120 % of control and the T/C [4] is reported as 115 % of control.
In the case of `O=[Se]([O][Sn]([O][Se](=O)c1ccccc1)([O][Se](=O)c1ccccc1)[O][Se](=O)c1ccccc1)c1ccccc1` (configuration not stated), the T/C [1] is reported as 98 % of control, the T/C (dose: 25.0 mg/kg/injection, schedule: Q01DX009 (ip), vehicle: saline with Tween-80) is reported as 103 % of control and the T/C [2] is reported as 110 % of control and 118 % of control.
`Cc1cc(NCCCCCCNc2cc(C)[n+](C)c3c(Cl)cccc23)c2cccc(Cl)c2[n+]1C` was tested, and the T/C (dose: 3.12 mg/kg/injection, schedule: Q01DX005 (ip), vehicle: suspension in saline) was 108 % of control, the T/C (dose: 6.25 mg/kg/injection, schedule: Q01DX005 (ip), vehicle: suspension in saline) was 99 % of control and the T/C (dose: 12.5 mg/kg/injection, schedule: Q01DX005 (ip), vehicle: suspension in saline) was 108 % of control.
`CC1(C)CC(=O)C2OC21` (configuration not stated) was tested, and the T/C (dose: 100.0 mg/kg/injection, schedule: Q04DX002 (ip), vehicle: saline) was 107 % of control and 95 % of control, the T/C (dose: 200.0 mg/kg/injection, schedule: Q04DX002 (ip), vehicle: saline) was 101 % of control and the T/C (dose: 400.0 mg/kg/injection, schedule: Q04DX002 (ip), vehicle: saline) was 106 % of control and 107 % of control.
`CCCCCC[Se][Se]CCCCCC` was tested, and the T/C (dose: 3.12 mg/kg/injection, schedule: Q01DX005 (ip), vehicle: Klucel (hydroxypropylcellulose) (HPC)) was 98 % of control, the T/C (dose: 6.25 mg/kg/injection, schedule: Q01DX005 (ip), vehicle: Klucel (hydroxypropylcellulose) (HPC)) was 97 % of control and the T/C (dose: 12.5 mg/kg/injection, schedule: Q01DX005 (ip), vehicle: Klucel (hydroxypropylcellulose) (HPC)) was 106 % of control. The T/C (dose: 25.0 mg/kg/injection, schedule: Q01DX005 (ip), vehicle: Klucel (hydroxypropylcellulose) (HPC)) was 104 % of control.
For `COc1cc(/C=C2/CCC/C(=C\c3ccc(OCC(O)COc4ccc(C(C)(C)c5ccc(OCC6CO6)cc5)cc4)c(OC)c3)C2=O)ccc1OCC(O)COc1ccc(C(C)(C)c2ccc(OCC3CO3)cc2)cc1` (configuration not stated), the T/C [8] was 96 % of control, the T/C [9] was 97 % of control and the T/C [10] was 95 % of control.
In the case of `COc1cccc(-c2nc(-c3ccccc3)nc(N(C)C)n2)c1O`, the T/C [6] is reported as 98 % of control and the T/C [7] is reported as 92 % of control.
For `COc1ccc2c(c1)C(=O)C1(CC2)OC1c1ccncc1` (configuration not stated), the T/C [9] was 97 % of control and the T/C [10] was 100 % of control.
For `Cc1cnc2ccccc2c1/C=C/c1ccc(N(C)C)cc1`, the T/C [2] was 124 % of control, the T/C (dose: 200.0 mg/kg/injection, schedule: Q01DX009 (ip), vehicle: saline with Tween-80) was 153 % of control and the T/C (dose: 400.0 mg/kg/injection, schedule: Q01DX009 (ip), vehicle: saline with Tween-80) was 120 % of control.
`C[n+]1ccc(I)c2ccc(Cl)cc21` was tested, and the T/C (dose: 12.5 mg/kg/injection, schedule: Q01DX009 (ip), vehicle: Klucel (hydroxypropylcellulose) (HPC)) was 101 % of control, the T/C (dose: 25.0 mg/kg/injection, schedule: Q01DX009 (ip), vehicle: Klucel (hydroxypropylcellulose) (HPC)) was 104 % of control and the T/C [8] was 109 % of control.
For `Cc1n[nH]c(=O)c2ccccc12`, the T/C [3] was 91 % of control, the T/C [4] was 99 % of control and the T/C [5] was 107 % of control.
